Assay results from ChEMBL document CHEMBL5252585, “Structure optimization and discovery of novel compound for the treatment of insertion mutations within exon 20 of EGFR and HER2” (Bioorg Med Chem, 2023).

Columns and labels:
[1] = Clearance in Sprague-Dawley rat at 10 mg/kg, iv measured upto 8 hrs by LC-MS/MS analysis; assay type: ADME, organism-based; conditions: in vivo
[2] = Inhibition of EGFR L858R/T790M double mutant (unknown origin); design: species or system Homo sapiens
[3] = Tmax in Sprague-Dawley rat at 10 mg/kg, po measured upto 8 hrs by LC-MS/MS analysis; assay type: ADME, organism-based; conditions: in vivo
[4] = AUC(0 to t) in Sprague-Dawley rat at 10 mg/kg, po measured upto 8 hrs by LC-MS/MS analysis; assay type: ADME, organism-based; design: dose 10 mg/kg, time < 8 hrs, route po; conditions: in vivo
[5] = system: BaF3; assay: Antiproliferative activity against mouse BAF3 cells harboring HER2-P780-Y781 ins GSP mutant after 72 hrs by celltiter-Glo luminescence assay; assay type: functional, cell-based; conditions: BaF3, 72 h
[6] = Mean residence time in Sprague-Dawley rat at 10 mg/kg, iv measured upto 8 hrs by LC-MS/MS analysis; assay type: ADME, organism-based; conditions: in vivo
[7] = system: BaF3; assay: Antitumor activity against mouse BaF3 cells implanted in BALB/c mouse harboring EGFR D770-N771 ins NPG mutant assessed as tumor growth inhibition at 10 mg/kg, po administered once daily for 13 to 14 days; assay type: functional; conditions: time 13-14 day, read-out: TGI
[8] = target: Tyrosine-protein kinase BTK (Homo sapiens) (UniProt Q06187); assay: Inhibition of BTK (unknown origin) at 500 nM relative to control
[9] = target: T1, Tyrosine-protein kinase TXK (Homo sapiens) (UniProt P42681); assay: Inhibition of TXK (unknown origin) at 500 nM relative to control
T1 sequence (whole entry): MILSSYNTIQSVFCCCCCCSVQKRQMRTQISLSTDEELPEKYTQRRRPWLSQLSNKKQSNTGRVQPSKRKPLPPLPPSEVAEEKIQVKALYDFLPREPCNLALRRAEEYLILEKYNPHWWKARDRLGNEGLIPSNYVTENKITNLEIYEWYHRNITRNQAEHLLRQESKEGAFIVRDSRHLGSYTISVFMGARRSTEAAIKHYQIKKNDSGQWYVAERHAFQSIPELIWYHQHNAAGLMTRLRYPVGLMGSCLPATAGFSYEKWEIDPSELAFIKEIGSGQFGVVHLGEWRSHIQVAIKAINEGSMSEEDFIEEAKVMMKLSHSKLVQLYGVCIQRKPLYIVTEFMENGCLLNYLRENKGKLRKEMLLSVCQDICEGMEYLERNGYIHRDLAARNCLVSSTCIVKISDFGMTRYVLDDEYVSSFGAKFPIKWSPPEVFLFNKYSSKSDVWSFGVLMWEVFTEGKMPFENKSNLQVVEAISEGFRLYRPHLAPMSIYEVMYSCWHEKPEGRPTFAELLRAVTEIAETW

[10] = system: BaF3; assay: Antiproliferative activity against mouse BAF3 cells harboring FL-EGFR A763-Y764 ins FQEA mutant after 72 hrs by celltiter-Glo luminescence assay; assay type: functional, cell-based; conditions: BaF3, 72 h

Tyrosine-protein kinase BTK (Homo sapiens), sequence (Q06187 whole entry): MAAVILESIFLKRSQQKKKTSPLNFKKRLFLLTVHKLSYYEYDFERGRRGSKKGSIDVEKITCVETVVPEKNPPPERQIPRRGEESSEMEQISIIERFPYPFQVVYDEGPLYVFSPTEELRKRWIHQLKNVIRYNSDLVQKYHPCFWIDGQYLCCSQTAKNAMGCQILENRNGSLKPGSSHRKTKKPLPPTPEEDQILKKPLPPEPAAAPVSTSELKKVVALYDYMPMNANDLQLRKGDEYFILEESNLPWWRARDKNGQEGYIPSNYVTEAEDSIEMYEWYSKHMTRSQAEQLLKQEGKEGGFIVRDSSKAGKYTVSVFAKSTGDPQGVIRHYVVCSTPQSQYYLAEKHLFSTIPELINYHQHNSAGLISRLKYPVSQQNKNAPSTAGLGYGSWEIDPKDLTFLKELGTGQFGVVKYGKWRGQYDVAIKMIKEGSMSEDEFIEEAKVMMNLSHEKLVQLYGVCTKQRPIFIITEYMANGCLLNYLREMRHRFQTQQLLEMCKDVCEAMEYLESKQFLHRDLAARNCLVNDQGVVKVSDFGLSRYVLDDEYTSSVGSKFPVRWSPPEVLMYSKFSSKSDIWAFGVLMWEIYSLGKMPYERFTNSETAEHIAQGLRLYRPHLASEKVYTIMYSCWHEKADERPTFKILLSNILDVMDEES

clearance [1]: 2.32 mL/min
IC50 [2]: 1.07 nM
Tmax [3]: 1.33 h
AUC(0-t) at 8 h [4]: 9500 ng·h/mL
IC50 [5]: 0.62 nM
MRT [6]: 1.89 h
inhibition [8]: > 20%
inhibition [9]: > 20%
IC50 [10]: 0.29 nM
SMILES: C=CC(=O)N1CCC(Oc2cc3c(Nc4cccc(Cl)c4F)ncnc3cc2O[C@H]2CCOC2)CC1
inhibition in vivo at 10 mg/kg [7]: 67%
